Assay results reported in patent US12157730B2, “Heteroaryl derivative, method for producing same, and pharmaceutical composition comprising same as effective component” (VORONOI INC., priority 2019, dated 2024).

Target: T1, Ba/F3 cell EGFR Exon20 ins NPH (Homo sapiens, UniProt P00533, INS773NPH)
T1 construct: expressed in transfected cells; host or cells: Ba/F3
Assay: Ba/F3 cell proliferation suppression, EGFR Exon20 ins NPH
Format: cell-based
Settings: GI50 class; Ba/F3 cell line with NPH inserted at Exon20 of EGFR; 72 hours
Summary of the method: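 Seed 3000–5000 cells/well; after 24 h add compound (12 conc., 0.3 nM–50 um final); incubate 72 h; add CellTiter-Glo, 10 min room temperature; read luminescence; GI50 from % growth vs control, triplicate.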

Ba/F3 (NPH) Activity | Structure (SMILES)
A (GI50 < 50 nM) | C=CC(=O)Nc1cc(Nc2cc(N3OCC[C@@H]3c3ccc(Cl)cc3F)ncn2)c(OC)cc1N1CCC(N2CCN(C(C)=O)CC2)CC1 [compound 375, N-(2-(4-(4-acetylpiperazine-1-yl)piperidine-1-yl)-5-((6-((R)-3-(4-chloro-2-fluorophenyl)isoxazolidine-2-yl)pyrimidine-4-yl)amino)-4-methoxyphenyl) acrylamide]
A (GI50 < 50 nM) | C=CC(=O)Nc1cc(Nc2cc(N3OCC[C@@H]3c3cc(F)cc(Cl)c3)ncn2)c(OC)cc1N1CCC(N2CCN(C3CC3)[C@@H](C)C2)CC1 [Example 157, N-(5-((6-((R)-3-(3-chloro-5-fluorophenyl)isoxazolidine-2-yl)pyrimidine-4-yl)amino)-2-(4-((S)-4-cyclopropyl-3-methylpiperazine-1-yl)piperidine-1-yl)-4-methoxyphenyl) acrylamide]
A (GI50 < 50 nM) | C=CC(=O)Nc1cc(Nc2cc(N3OCC[C@@H]3c3cccc(F)c3F)ncn2)c(OC)cc1N1CCN(CC)CC1 [compound 297, N-(5-((6-((R)-3-(2,3-difluorophenyl)isoxazolidine-2-yl)pyrimidine-4-yl)amino)-2-(4-ethylpiperazine-1-yl)-4-methoxyphenyl) acrylamide]
A (GI50 < 50 nM) | C=CC(=O)Nc1cc(Nc2cc(N3OCC[C@@H]3c3ccc(Cl)c(Cl)c3)ncn2)c(OC)cc1N1CCC(N2CCOCC2)CC1 [compound 683, N-(5-((6-((R)-3-(3,4-dichlorophenyl)isoxazolidine-2-yl)pyrimidine-4-yl)amino)-4-methoxy-2-(4-morpholinopiperidine-1-yl)phenyl)acrylamide]
A (GI50 < 50 nM) | C=CCN1CCN(C2CCN(c3cc(OC)c(Nc4cc(N5OCC[C@@H]5c5cc(F)ccc5F)ncn4)cc3NC(=O)C=C)CC2)CC1 [Example 88, N-(2-(4-(4-allylpiperazine-1-yl)piperidine-1-yl)-5-((6-((R)-3-(2,5-difluorophenyl)isoxazolidine-2-yl)pyrimidine-4-yl)amino)-4-methoxyphenyl) acrylamide]
A (GI50 < 50 nM) | C=CC(=O)Nc1cc(Nc2cc(N3OCC[C@@H]3c3cc(F)cc(F)c3)ncn2)c(OC)cc1N1C[C@H]2CCN(C)[C@H]2C1 [compound 890, N-(5-((6-((R)-3-(3,5-difluorophenyl)isoxazolidine-2-yl)pyrimidine-4-yl)amino)-4-methoxy-2-((3aR,6aR)-1-methylhexahydropyrrolo [3,4-b]pyrrole-5(1H)-yl)phenyl) acrylamide]
A (GI50 < 50 nM) | C=CC(=O)Nc1cc(Nc2cc(N3OCC[C@@H]3c3cccc(C)c3F)ncn2)c(OC)cc1N1CCC(N2CCC(N(C)C)CC2)CC1 [compound 420, N-(2-(4-(dimethylamino)-[1,4'-bipiperidine]-1'-yl)-5-((6-((R)-3-(2-fluoro-3-methylphenyl)isoxazolidine-2-yl)pyrimidine-4-yl)amino)-4-methoxyphenyl) acrylamide]
A (GI50 < 50 nM) | C=CC(=O)Nc1cc(Nc2cc(N3OCC[C@@H]3c3cc(F)cc(F)c3)ncn2)c(OC)cc1N1CCC(N2C[C@H]3C[C@@H]2CN3CC)CC1 [Example 267, N-(5-((6-((R)-3-(3,5-difluorophenyl)isoxazolidine-2-yl)pyrimidine-4-yl)amino)-2-(4-((1R,4R)-5-ethyl-2,5-diazabicyclo[2.2.1]heptane-2-yl)piperidine-yl)-4-1-methoxyphenyl) acrylamide]
A (GI50 < 50 nM) | C=CC(=O)Nc1cc(Nc2cc(N3OCC[C@@H]3c3ccc(Cl)cc3F)ncn2)c(OC)cc1N1CCC(N(C)C)CC1 [compound 403, N-(5-((6-((R)-3-(4-chloro-2-fluorophenyl)isoxazolidine-2-yl)pyrimidine-4-yl)amino)-2-(4-(dimethylamino)piperidine-1-yl)-4-methoxyphenyl) acrylamide]
A (GI50 < 50 nM) | C=CC(=O)Nc1cc(Nc2cc(N3OCC[C@@H]3c3cccc(OC)c3)ncn2)c(OC)cc1N1CCC(N2C[C@@H]3C[C@H]2CO3)CC1 [Example 27, N-(2-(4-((1S,4S)-2-oxa-5-azabicyclo[2.2.1]heptane-5-yl)piperidine-1-yl)-4-methoxy-5-((6-((R)-3-(3-methoxyphenyl)isoxazolidine-2-yl)pyrimidine-4-yl)amino)phenyl) acrylamide]
A (GI50 < 50 nM) | C=CC(=O)Nc1cc(Nc2cc(N3OCC[C@@H]3c3cccc(Cl)c3C)ncn2)c(OC)cc1N1CCC(N2CCN(CCC)CC2)CC1 [compound 582, N-(5-((6-((R)-3-(3-chloro-2-methylphenyl)isoxazolidine-2-yl)pyrimidine-4-yl)amino)-4-methoxy-2-(4-(4-propylpiperazine-1-yl)piperidine-1-yl)phenyl) acrylamide]
A (GI50 < 50 nM) | C=CC(=O)Nc1cc(Nc2cc(N3OCC[C@@H]3Cc3ccccc3)ncn2)c(OC)cc1N1C[C@@H]2C[C@H]1CO2 [compound 962, N-(5-((6-((S)-3-benzylisoxazolidine-2-yl)pyrimidine-4-yl)amino)-2-((1S,4S)-2-oxa-5-azabicyclo [2.2.1]heptane-5-yl)-4-methoxyphenyl) acrylamide]
A (GI50 < 50 nM) | C=CC(=O)Nc1cc(Nc2cc(N3OCC[C@@H]3c3cccc(Cl)c3C)ncn2)c(OC)cc1N1CCC(N2CCC(F)(F)CC2)CC1 [compound 581, N-(5-((6-((R)-3-(3-chloro-2-methylphenyl)isoxazolidine-2-yl)pyrimidine-4-yl)amino)-2-(4,4-difluoro-[1,4'-bipiperidine]-1'-yl)-4-methoxyphenyl) acrylamide]
C (500 nM ≤ GI50 < 5000 nM) | C=CC(=O)Nc1cc(Nc2cc(N3OCC[C@@H]3c3ccc(F)c(F)c3)ncn2)c(OC)cc1N1CC[C@H](N2CCOCC2)C1 [compound 579, N-(5-((6-((R)-3-(3,4-difluorophenyl)isoxazolidine-2-yl)pyrimidine-4-yl)amino)-4-methoxy-2-((S)-3-morpholinopyrolidine-1-yl)phenyl)acrylamide]
A (GI50 < 50 nM) | C=CC(=O)Nc1cc(Nc2cc(N3OCC[C@@H]3c3ccc(F)cc3F)ncn2)c(OC)cc1N1CCN(C2COC2)CC1 [compound 383, N-(5-((6-((R)-3-(2,4-difluorophenyl)isoxazolidine-2-yl)pyrimidine-4-yl)amino)-4-methoxy-2-(4-(oxetane-3-yl)piperazine-1-yl)phenyl)acrylamide]
A (GI50 < 50 nM) | C=CC(=O)Nc1cc(Nc2cc(N3OCC[C@@H]3c3cccc(C(F)(F)F)c3)ncn2)c(OC)cc1N1CCC(N2CCN(C3CC3)[C@H](C)C2)CC1 [compound 942, N-(2-(4-((R)-4-cyclopropyl-3-methylpiperazine-1-yl)piperidine-1-yl)-4-methoxy-5-((6-((R)-3-(3-(trifluoromethyl)phenyl)isoxazolidine-2-yl)pyrimidine-4-yl)amino)phenyl) acrylamide]
B (50 nM ≤ GI50 < 500 nM) | C=CC(=O)Nc1cc(Nc2cc(N3OCC[C@@H]3c3cc(F)cc(F)c3)ncn2)cc(N2CCN(C)CC2)c1 [compound 633, N-(3-((6-((R)-3-(3,5-difluorophenyl)isoxazolidine-2-yl)pyrimidine-4-yl)amino)-5-(4-methylpiperazine-1-yl)phenyl)acrylamide]
B (50 nM ≤ GI50 < 500 nM) | C=CC(=O)Nc1cc(Nc2cc(N3OCC[C@@H]3c3ccc(Cl)c(Cl)c3F)ncn2)c(OC)cc1N1CCC(N2CC[C@@H](N(C)C)C2)CC1 [compound 771, N-(5-((6-((R)-3-(3,4-dichloro-2-fluorophenyl)isoxazolidine-2-yl)pyrimidine-4-yl)amino)-2-(4-((R)-3-(dimethylamino)pyrolidine-1-yl)piperidine-1-yl)-4-methoxyphenyl) acrylamide]
B (50 nM ≤ GI50 < 500 nM) | C=CC(=O)Nc1cc(Nc2cc(N3OCC[C@@H]3Cc3cccc(N(C)C)c3)ncn2)c(OC)cc1N1CCC(N2CCN(C3CC3)CC2)CC1 [compound 1044, N-(2-(4-(4-cyclopropylpiperazine-1-yl)piperidine-1-yl)-5-((6-((S)-3-(3-(dimethylamino)benzyl)isoxazolidine-2-yl)pyrimidine-4-yl)amino)-4-methoxyphenyl) acrylamide]
A (GI50 < 50 nM) | C=CC(=O)Nc1cc(Nc2cc(N3OCC[C@@H]3c3cc(F)ccc3F)ncn2)c(OC)cc1N(C)CCN(C)C [compound 882, N-(5-((6-((R)-3-(2,5-difluorophenyl)isoxazolidine-2-yl)pyrimidine-4-yl)amino)-2-((2-(dimethylamino)ethyl)(methyl)amino)-4-methoxyphenyl) acrylamide]
B (50 nM ≤ GI50 < 500 nM) | C=CC(=O)Nc1cc(Nc2cc(N3OCC[C@@H]3c3cccc4ccccc34)ncn2)c(OC)cc1N1CCC(N2CCN(CC)CC2)CC1 [compound 484, N-(2-(4-(4-ethylpiperazine-1-yl)piperidine-1-yl)-4-methoxy-5-((6-((R)-3-(naphthalene-1-yl)isoxazolidine-2-yl)pyrimidine-4-yl)amino)phenyl)acrylamide]
A (GI50 < 50 nM) | C=CC(=O)Nc1cc(Nc2cc(N3OCC[C@@H]3c3ccc(F)c(Cl)c3)ncn2)c(OC)cc1N1CC[C@H](N(C)C)C1 [compound 906, N-(5-((6-((R)-3-(3-chloro-4-fluorophenyl)isoxazolidine-2-yl)pyrimidine-4-yl)amino)-2-((S)-3-(dimethylamino)pyrolidine-1-yl)-4-methoxyphenyl) acrylamide]
A (GI50 < 50 nM) | C=CC(=O)Nc1cc(Nc2cc(N3OCC[C@@H]3c3cccc4ccccc34)ncn2)c(OC)cc1N1CCN(C2COC2)CC1 [compound 439, N-(4-methoxy-5-((6-((R)-3-(naphthalene-1-yl)isoxazolidine-2-yl)pyrimidine-4-yl)amino)-2-(4-(oxetane-3-yl)piperazine-1-yl)phenyl) acrylamide]
